According to ChEMBL document CHEMBL5104129, “Discovery of a novel 2-spiroproline steroid mimetic scaffold for the potent inhibition of 11β-HSD1” (Bioorg Med Chem Lett, 2022):

Key:
[1] = target: T1, 11-beta-hydroxysteroid dehydrogenase 1 (Homo sapiens, UniProt P28845); test: Inhibition of 11beta-HSD1 (unknown origin) using 3H-cortisone as substrate by scintillation proximity assay
[2] = target: T1, 11-beta-hydroxysteroid dehydrogenase 1; test: Inhibition of 11beta-HSD1 in human PBMC cells using 3H-cortisone as substrate assessed as conversion of cortisone to cortisol by ELISA; format: cell-based
hERG (KCNH2) = hERG (KCNH2) (Homo sapiens, UniProt Q12809); test: Inhibition of human ERG expressed in CHO cells at 30 uM at -80 mV holding potential by automated patch clamp assay relative to control; format: toxicity, cell-based; details: CHO cells expressing human ERG
PXR (NR1I2) [3] = target: T2, PXR (NR1I2) (Homo sapiens, UniProt O75469); test: Activation of human PXR assessed as induction of PXR activity at 10 uM relative to control; details: read-out: Activity
T2 sequence (O75469 whole entry): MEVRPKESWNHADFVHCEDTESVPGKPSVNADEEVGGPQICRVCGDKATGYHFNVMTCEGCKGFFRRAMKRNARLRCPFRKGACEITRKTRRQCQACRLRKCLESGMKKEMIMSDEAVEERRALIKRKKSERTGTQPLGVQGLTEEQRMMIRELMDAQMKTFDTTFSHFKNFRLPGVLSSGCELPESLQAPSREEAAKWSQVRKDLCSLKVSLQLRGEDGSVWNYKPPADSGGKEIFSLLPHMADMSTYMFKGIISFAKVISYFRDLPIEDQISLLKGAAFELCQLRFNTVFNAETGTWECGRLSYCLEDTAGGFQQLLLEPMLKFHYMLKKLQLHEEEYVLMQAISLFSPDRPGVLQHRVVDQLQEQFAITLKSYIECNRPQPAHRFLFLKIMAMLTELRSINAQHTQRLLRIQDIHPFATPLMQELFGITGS

PXR (NR1I2) [4] = target: T3, PXR (NR1I2) (Rattus norvegicus, UniProt Q9R1A7); test: Activation of rat PXR assessed as induction of PXR activity at 10 uM relative to control; details: read-out: Activity
T3 sequence (Q9R1A7 whole entry): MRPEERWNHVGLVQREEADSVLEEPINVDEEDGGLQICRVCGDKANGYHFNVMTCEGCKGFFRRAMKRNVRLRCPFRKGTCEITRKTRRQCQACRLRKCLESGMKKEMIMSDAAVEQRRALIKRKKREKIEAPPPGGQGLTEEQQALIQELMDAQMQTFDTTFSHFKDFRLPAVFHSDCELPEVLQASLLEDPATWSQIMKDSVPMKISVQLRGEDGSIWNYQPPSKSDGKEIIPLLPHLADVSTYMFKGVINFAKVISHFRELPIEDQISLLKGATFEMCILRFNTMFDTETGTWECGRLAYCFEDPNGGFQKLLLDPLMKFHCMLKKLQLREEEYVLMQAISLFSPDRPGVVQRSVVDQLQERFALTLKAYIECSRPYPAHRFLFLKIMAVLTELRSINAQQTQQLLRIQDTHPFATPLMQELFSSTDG

Sequence of hERG (KCNH2) (Q12809 whole entry): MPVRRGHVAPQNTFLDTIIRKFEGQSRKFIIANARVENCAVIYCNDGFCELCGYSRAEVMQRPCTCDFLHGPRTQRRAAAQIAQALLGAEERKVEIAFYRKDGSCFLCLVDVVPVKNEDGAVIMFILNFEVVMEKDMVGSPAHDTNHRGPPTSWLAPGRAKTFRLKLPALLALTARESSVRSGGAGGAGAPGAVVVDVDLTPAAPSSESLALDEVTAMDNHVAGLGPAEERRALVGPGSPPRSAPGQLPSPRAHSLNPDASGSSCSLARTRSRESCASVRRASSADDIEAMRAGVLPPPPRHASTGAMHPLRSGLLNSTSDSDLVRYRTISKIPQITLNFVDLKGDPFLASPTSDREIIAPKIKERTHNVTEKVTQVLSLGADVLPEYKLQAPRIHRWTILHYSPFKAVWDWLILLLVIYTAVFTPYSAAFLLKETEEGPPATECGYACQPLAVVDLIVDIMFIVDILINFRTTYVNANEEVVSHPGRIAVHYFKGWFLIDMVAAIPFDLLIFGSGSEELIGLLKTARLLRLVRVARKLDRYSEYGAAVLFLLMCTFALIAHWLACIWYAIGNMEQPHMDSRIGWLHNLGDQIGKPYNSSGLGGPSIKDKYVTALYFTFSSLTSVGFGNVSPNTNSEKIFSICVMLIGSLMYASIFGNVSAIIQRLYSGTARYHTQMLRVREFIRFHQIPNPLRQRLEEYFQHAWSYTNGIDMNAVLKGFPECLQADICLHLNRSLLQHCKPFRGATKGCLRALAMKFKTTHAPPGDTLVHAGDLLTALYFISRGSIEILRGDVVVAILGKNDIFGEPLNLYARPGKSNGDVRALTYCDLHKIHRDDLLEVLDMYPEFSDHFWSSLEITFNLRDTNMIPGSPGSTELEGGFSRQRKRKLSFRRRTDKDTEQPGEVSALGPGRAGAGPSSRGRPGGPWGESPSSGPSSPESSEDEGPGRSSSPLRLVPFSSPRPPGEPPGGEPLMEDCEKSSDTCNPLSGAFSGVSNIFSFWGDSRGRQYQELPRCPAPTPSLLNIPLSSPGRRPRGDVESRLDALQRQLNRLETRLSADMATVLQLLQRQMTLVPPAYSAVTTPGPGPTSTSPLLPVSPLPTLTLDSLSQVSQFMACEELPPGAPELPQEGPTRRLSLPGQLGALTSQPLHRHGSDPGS
T1 sequence (P28845 whole entry): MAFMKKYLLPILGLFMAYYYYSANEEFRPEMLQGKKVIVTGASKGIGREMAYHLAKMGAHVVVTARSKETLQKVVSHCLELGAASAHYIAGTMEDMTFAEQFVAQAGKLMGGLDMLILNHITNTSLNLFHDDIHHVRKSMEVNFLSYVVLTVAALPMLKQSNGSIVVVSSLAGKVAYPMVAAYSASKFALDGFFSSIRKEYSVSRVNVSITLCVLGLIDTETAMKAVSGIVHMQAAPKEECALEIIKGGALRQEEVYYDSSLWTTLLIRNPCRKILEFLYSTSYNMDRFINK

| Compound | IC50 [1] [nM] | IC50 [2] [nM] | activity at 10 µM (PXR (NR1I2) [3]) [%] | activity at 10 µM (PXR (NR1I2) [4]) [%] | inhibition at 30 µM (hERG (KCNH2)) [%] |
| --- | --- | --- | --- | --- | --- |
| O=C1N(C2CCCCC2)CC[C@]12C[C@@H](O)CN2Cc1ccc(Cl)cc1 | 6 | 6.2 | 42 | 16 | 14 |
| CC(C)CN1CCCC12CCN(C13CC4CC(CC(C4)C1)C3)C2=O (stereo unspecified) | 400 |  |  |  |  |
| O=C1N([C@H]2CC[C@H](O)CC2)CCC12CCCN2Cc1ccc(Cl)cc1 (stereo partly specified) | 30 |  | 0.5 | 2 | 13 |
| CC1(O)CN(Cc2ccc(Cl)cc2)[C@@]2(CCN(C3CCCCC3)C2=O)C1 (stereo partly specified) | 999 | > 37 | 9.5 | 41 | 13 |
| O=C(c1ccccn1)N1CCCC12CCN(C1CCCCC1)C2=O (stereo unspecified) | > 1000 |  |  |  |  |
| O=C1N(C2CCCCC2)CCC12C[C@@H](O)CN2Cc1ccc(Cl)cc1 (stereo partly specified) | 7 |  | 18 | 10 | 27 |
| O=C1N(C2CCCCC2)CCC12CCCN2Cc1ccccn1 (stereo unspecified) | 63 |  |  |  |  |
| O=C1N(C2CCCCC2)CC[C@]12C[C@@H](O)CN2CC1CCCCC1 | 15 | 7 | 9 | 14 | 8.1 |
| O=C1N(C23CC4CC(CC(C4)C2)C3)CCC12CCCN2Cc1ccccn1 (stereo unspecified) | 134 |  |  |  |  |
| O=C1N(C2CCCCC2)CC[C@]12C[C@H](F)CN2Cc1ccc(Cl)cc1 | 2 | 5.1 | 48 | 123 | 52 |
| O=C1N(C2CCCCC2)CC[C@@]12C[C@H](O)CN2Cc1ccc(Cl)cc1 | > 1000 | > 37 | 52 | 12 | -4.3 |
| N#Cc1ccc(CN2CCCC23CCN(C2CCCCC2)C3=O)cc1 (stereo unspecified) | 29 |  |  |  |  |
| O=C1N(C2CCCCC2)CCC12CCCN2CC1CC1 (stereo unspecified) | 134 |  |  |  |  |
| O=C1N(C2CCCCC2)CCC12CCCN2Cc1ccc(C(F)(F)F)cc1 (stereo unspecified) | 7 |  | 80 | 12 | 27 |
| CC(C)NC(=O)c1ccc(-c2ccc(CN3C[C@H](O)C[C@]34CCN(C3CCCCC3)C4=O)cc2F)cn1 | 5 | 4.9 |  |  |  |
| O=C1N(C2CCCC2)CCC12CCCN2Cc1ccc(Cl)cc1 (stereo unspecified) | 26 |  |  |  |  |
| O=C1N(C2CCCCC2)CCC12CCCN2Cc1cccc(C(F)(F)F)c1 (stereo unspecified) | 40 |  |  |  |  |
| N#Cc1ccnc(-c2ccc(CN3C[C@H](O)C[C@]34CCN(C3CCCCC3)C4=O)cc2)c1 | 35 |  |  |  |  |
| O=C1N(C2CCOCC2)CCC12CCCN2Cc1ccc(Cl)cc1 (stereo unspecified) | 45 |  |  |  |  |
| O=C1N(C2CCCCC2)CCC12CCCN2Cc1ccccc1C(F)(F)F (stereo unspecified) | 15 |  |  |  |  |
| O=C1N(C2CCCCC2)CCC12CCCN2CC1CCCC1 (stereo unspecified) | 36 |  |  |  |  |
| CC(C)N1C[C@H](O)C[C@]12CCN(C1CCCCC1)C2=O | > 1000 | > 37 | -0.5 | -0.5 | 0 |
| CCNC(=O)c1ccc(-c2ccc(CN3CCCC34CCN(C3CCCCC3)C4=O)cc2)cn1 (stereo unspecified) | 23 |  | 13 | 31 | 15 |

The next lines start with results.

| IC50 [1] [nM] | IC50 [2] [nM] | activity at 10 µM (PXR (NR1I2) [3]) [%] | activity at 10 µM (PXR (NR1I2) [4]) [%] | Compound | inhibition at 30 µM (hERG (KCNH2)) [%] |
| --- | --- | --- | --- | --- | --- |
| 460 |  |  |  | O=C1N(C2CCCCC2)CCC12CCCN2CC1CCOC1 (stereo unspecified) |  |
| 80 | > 37 |  |  | O=C1N(C2CCCCC2)CC[C@]12C[C@@H](O)CN2Cc1ccc(-c2ccc(F)cc2)nc1 |  |
| > 1000 |  |  |  | O=C1N(C2CCCCC2)CCC12CCCN2C1CCC1 (stereo unspecified) |  |
| 400 | > 37 | 1 | 2 | CC(C1CC1)N1C[C@H](O)C[C@]12CCN(C1CCCCC1)C2=O (stereo partly specified) | -10 |
| 500 |  |  |  | O=C1N(c2ccccc2Cl)CCC12CCCN2CC1CC1 (stereo unspecified) |  |
| 227 | > 37 |  |  | CCNC(=O)c1ccc(-c2cccc(CN3C[C@H](O)C[C@]34CCN(C3CCCCC3)C4=O)c2)cn1 |  |
| 18 | 35 |  |  | N#Cc1ccc(-c2ccc(CN3C[C@H](O)C[C@]34CCN(C3CCCCC3)C4=O)cn2)cc1 |  |
| 30 |  |  |  | O=C1N(C2CCCCC2)CC[C@]12C[C@@H](O)CN2CC1CCCC1 |  |
| 13 | 9.5 |  |  | CNC(=O)c1ccc(-c2ccc(CN3C[C@H](O)C[C@]34CCN(C3CCCCC3)C4=O)cc2F)cn1 |  |
| 7 | 3.9 | 4.5 | 9 | CC(C1CCC1)N1C[C@H](O)C[C@]12CCN(C1CCCCC1)C2=O (stereo partly specified) | -15 |
| 62 | > 37 |  |  | CCNC(=O)c1ccc(-c2cc(CN3C[C@H](O)C[C@]34CCN(C3CCCCC3)C4=O)ccc2F)cn1 |  |
| 2 | 5.9 | 14 | 24 | CNC(=O)c1ccc(-c2ccc(CN3C[C@@H](F)C[C@]34CCN(C3CCCCC3)C4=O)cc2)cn1 | 49 |
| 3 | 7.2 | -0.3 | -0.3 | CNC(=O)c1ccc(-c2ccc(CN3C[C@H](O)C[C@]34CCN(C3CCCCC3)C4=O)cc2)cn1 | -14 |
| 35 |  |  |  | CN(C)C(=O)c1ccc(-c2ccc(CN3C[C@H](O)C[C@]34CCN(C3CCCCC3)C4=O)cc2)cn1 |  |
| 351 |  |  |  | O=C1N(C2CCCCC2)CC[C@]12C[C@@H](O)CN2C1CCCC1 |  |
| 188 |  |  |  | N#Cc1cncc(-c2ccc(CN3C[C@H](O)C[C@]34CCN(C3CCCCC3)C4=O)cc2)c1 |  |
| 8 |  | 46 | 22 | O=C1N(C2CCCCC2)CCC12CCCN2Cc1ccc(Cl)cc1 (stereo unspecified) | 45 |
| 230 |  |  |  | N#Cc1ccc(-c2ccc(CN3C[C@H](O)C[C@]34CCN(C3CCCCC3)C4=O)nc2)cc1 |  |
| 7 |  |  |  | O=C1N(C2CCCCCC2)CCC12CCCN2Cc1ccc(Cl)cc1 (stereo unspecified) |  |
| 51 |  |  |  | O=C1N(C23CC4CC(CC(C4)C2)C3)CCC12CCCN2CC1CCCC1 (stereo unspecified) |  |
| 15 | 21 | 56 | 28 | CCN1C[C@@H](O)C[C@]12CCN(C1CCCCC1)C2=O | 11 |
| > 1000 |  |  |  | O=C1N(C23CC4CC(CC(C4)C2)C3)CCC12CCCN2c1ccc(C(F)(F)F)cn1 (stereo unspecified) |  |
| 92 | > 37 |  |  | N#Cc1cccc(-c2ccc(CN3C[C@H](O)C[C@]34CCN(C3CCCCC3)C4=O)cn2)c1 |  |
| 5 | 1.9 | 10 | 58 | CC(C1CCCCC1)N1C[C@H](O)C[C@]12CCN(C1CCCCC1)C2=O (stereo partly specified) | 14 |
| 9 | 17 |  |  | CNC(=O)c1ccc(-c2ccc(CN3C[C@H](O)C[C@]34CCN(C3CCCCC3)C4=O)c(F)c2)cn1 |  |
| 7 | 6.6 |  |  | O=C1N(C2CCCCC2)CC[C@]12C[C@@H](O)CN2Cc1ccc(-c2ccncc2)cc1 |  |
